Laboratory results from ChEMBL document CHEMBL3112462, “2-acylamino-5-nitro-1,3-thiazoles: preparation and in vitro bioevaluation against four neglected protozoan parasites” (Bioorg Med Chem, 2014).

Assays:
Trypanosoma cruzi [1] = assay: Antimicrobial activity against epimastigote stage of Trypanosoma cruzi MHOM/MX/1994/Ninoa clinical isolate after 72 hrs by Neubauer chamber analysis; assay type: functional, organism-based
Trichomonas vaginalis [2] = assay: Antimicrobial activity against Trichomonas vaginalis GT3 incubated for 48 hrs followed by compound washout measured after 48 hrs; assay type: functional, organism-based; conditions: GT3, 48 h
[3] = Cytotoxicity against African green monkey Vero cells assessed as cell viability after 48 hrs by SRB assay; assay type: cell-based; conditions: chlorocebus sabaeus
Leishmania amazonensis [4] = assay: Antimicrobial activity against promastigote stage of Leishmania amazonensis IFLA/BR/67/PH-8 clinical isolate after 72 hrs by Neubauer chamber analysis; assay type: functional, organism-based; conditions: IFLA/BR/67/PH-8, 72 h
Giardia intestinalis [5] = assay: Ratio of metronidazole IC50 to compound IC50 for Giardia intestinalis IMSS:0696:1; assay type: functional, Giardia duodenalis
Giardia intestinalis [6] = assay: Antimicrobial activity against Giardia intestinalis IMSS:0696:1 incubated for 48 hrs followed by compound washout measured after 48 hrs; assay type: functional, organism-based; conditions: Giardia duodenalis, IMSS:0696:1, 48 h
[7] = Selectivity index, ratio of CC50 for African green monkey Vero cells to IC50 for Trichomonas vaginalis GT3; assay type: functional
Trichomonas vaginalis [8] = assay: Ratio of metronidazole IC50 to compound IC50 for Trichomonas vaginalis GT3; assay type: functional
[9] = Selectivity index, ratio of CC50 for African green monkey Vero cells to IC50 for Giardia intestinalis IMSS:0696:1; assay type: functional
Trypanosoma cruzi [10] = assay: Ratio of benznidazole IC50 to compound IC50 for epimastigote stage of Trypanosoma cruzi MHOM/MX/1994/Ninoa clinical isolate; assay type: functional
Leishmania amazonensis [11] = assay: Ratio of pentamidine IC50 to compound IC50 for promastigote stage of Leishmania amazonensis IFLA/BR/67/PH-8 clinical isolate; assay type: functional

| IC50 (Trypanosoma cruzi [1]) [µM] | IC50 (Trichomonas vaginalis [2]; read-out: pIC50 (converted)) [µM] | IC50 (Leishmania amazonensis [4]) [µM] | IC50 (Trichomonas vaginalis [2]; read-out: IC50) [µM] | IC50 (Giardia intestinalis [6]; read-out: IC50) [µM] | IC50 (Giardia intestinalis [6]; read-out: pIC50 (converted)) [µM] | SMILES | CC50 at 48 h [3] [µM] | Ratio IC50 (Giardia intestinalis [5]) | Ratio CC50/IC50 [7] | Ratio IC50 (Trichomonas vaginalis [8]) | Ratio CC50/IC50 [9] | Ratio IC50 (Trypanosoma cruzi [10]) | Ratio IC50 (Leishmania amazonensis [11]) |
| --- | --- | --- | --- | --- | --- | --- | --- | --- | --- | --- | --- | --- | --- |
| > 50 | 0.316 | > 50 | – | – | – | Cc1ncc([N+](=O)[O-])n1CCO [METRONIDAZOLE] | 387 | – | – | – | – | – | – |
| > 50 | 1.26 | 37.2 | 1.03 | 0.577 | 0.589 | O=C(Nc1ccc(Cl)cc1)Nc1ncc([N+](=O)[O-])s1 | > 1000 | 11 | – | – | – | – | – |
| > 50 | 0.1 | > 50 | 0.081 | 0.01 | 0.01 | COC(=O)Nc1ncc([N+](=O)[O-])s1 | 2460 | 536 | 30407 | 4 | 246300 | – | – |
| > 50 | 0.398 | > 50 | 0.387 | 1.8 | 1.82 | CCCCOc1ccc(NC(=O)Nc2ncc([N+](=O)[O-])s2)cc1 | 58 | – | – | – | – | – | – |
| > 50 | 1.26 | > 50 | 1.23 | 7.83 | 7.94 | O=C(Nc1ccc(F)cc1)Nc1ncc([N+](=O)[O-])s1 | > 1000 | – | – | – | – | – | – |
| > 50 | 0.316 | > 50 | 0.305 | 0.398 | 0.398 | CCCCC(=O)Nc1ncc([N+](=O)[O-])s1 | > 1000 | 11 | – | – | – | – | – |
| > 50 | 1.58 | 32.2 | 1.3 | 29.1 | 29.5 | COc1ccc(NC(=O)Nc2ncc([N+](=O)[O-])s2)cc1 | – | – | – | – | – | – | – |
| > 50 | 0.0251 | > 50 | 0.022 | 0.49 | 0.501 | CC(=O)Nc1ncc([N+](=O)[O-])s1 [NITHIAMIDE] | > 1000 | 11 | – | 13 | – | – | – |
| > 50 | 2 | > 50 | 1.65 | 0.359 | 0.363 | O=C(Nc1ncc([N+](=O)[O-])s1)NC1CCCCC1 | > 1000 | 11 | – | – | – | – | – |
| > 50 | 0.01 | > 50 | 0.01 | 6.41 | 6.46 | CCOC(=O)C(=O)Nc1ncc([N+](=O)[O-])s1 | 1420 | – | 141500 | 29 | 220 | – | – |
| > 50 | 3.16 | > 50 | 2.58 | 1.63 | 1.66 | CCCCCCCCCCCCCCCC(=O)Nc1ncc([N+](=O)[O-])s1 | > 1000 | – | – | – | – | – | – |
| > 50 | 0.316 | > 50 | 0.282 | 3.75 | 3.8 | CCOc1ccc(NC(=O)Nc2ncc([N+](=O)[O-])s2)cc1 | > 1000 | – | – | – | – | – | – |
| > 50 | – | 14.3 | – | – | – | N=C(N)c1ccc(OCCCCCOc2ccc(C(=N)N)cc2)cc1 [PENTAMIDINE] | 47 | – | – | – | – | – | – |
| – | – | > 50 | – | – | – | O=C(Cn1ccnc1[N+](=O)[O-])NCc1ccccc1 [BENZNIDAZOLE] | 14 | – | – | – | – | – | – |
| > 50 | – | 38.5 | – | 2.57 | 2.57 | O=C(Nc1ccccc1)Nc1ncc([N+](=O)[O-])s1 | > 1000 | – | – | – | – | – | – |

| SMILES | IC50 (Trypanosoma cruzi [1]) [µM] | IC50 (Trichomonas vaginalis [2]; read-out: pIC50 (converted)) [µM] | IC50 (Leishmania amazonensis [4]) [µM] | IC50 (Trichomonas vaginalis [2]; read-out: IC50) [µM] | IC50 (Giardia intestinalis [6]; read-out: IC50) [µM] | IC50 (Giardia intestinalis [6]; read-out: pIC50 (converted)) [µM] | CC50 at 48 h [3] [µM] | Ratio IC50 (Giardia intestinalis [5]) | Ratio CC50/IC50 [7] | Ratio IC50 (Trichomonas vaginalis [8]) | Ratio CC50/IC50 [9] | Ratio IC50 (Trypanosoma cruzi [10]) | Ratio IC50 (Leishmania amazonensis [11]) |
| --- | --- | --- | --- | --- | --- | --- | --- | --- | --- | --- | --- | --- | --- |
| Nc1ncc([N+](=O)[O-])s1 | > 50 | 63.1 | > 50 | 52.9 | 29.6 | 27.5 | 441 | – | – | – | – | – | – |
| O=C(Nc1ccc([N+](=O)[O-])cc1)Nc1ncc([N+](=O)[O-])s1 | > 50 | 1 | > 50 | 0.958 | 15.3 | 15.5 | – | – | – | – | – | – | – |
| CC(=O)Oc1ccccc1C(=O)Nc1ncc([N+](=O)[O-])s1 [NITAZOXANIDE] | – | 0.0794 | 7.23 | – | – | 1.23 | 833 | – | – | – | – | 2 | 2 |
